The record followed here is patent US20140357655A1, “SPIROINDOLINE DERIVATIVES AS GONADOTROPIN- RELEASING HORMONE RECEPTOR ANTAGONISTS” (Bayer Intellectual Property GmbH, priority 2012, published 2014).

The test deals with T1, human GnRH receptor (Homo sapiens, UniProt P30968).
T1 sequence (P30968 1-328): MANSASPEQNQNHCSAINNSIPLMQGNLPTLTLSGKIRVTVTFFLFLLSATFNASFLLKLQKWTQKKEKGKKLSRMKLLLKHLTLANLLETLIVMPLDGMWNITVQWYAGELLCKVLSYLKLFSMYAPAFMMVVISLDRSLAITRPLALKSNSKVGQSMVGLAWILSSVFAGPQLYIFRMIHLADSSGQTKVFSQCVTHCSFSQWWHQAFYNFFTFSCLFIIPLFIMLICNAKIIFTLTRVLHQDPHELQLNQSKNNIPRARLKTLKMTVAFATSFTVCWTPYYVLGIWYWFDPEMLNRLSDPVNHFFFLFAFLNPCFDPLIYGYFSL
Briefly: IP-One HTRF assay with buserelin (at EC80) stimulation. Type of test: cell-based. Particulars: CHO cells stably expressing human GnRH receptor, read-out: Potency in IP-One HTRF assay, given as IC50. The method in brief: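 Ten-point duplicate titrations (20 μM to 1 nM) were fitted by 4-parameter model to normalized 665/620 nm HTRF ratios, 0% = no compound, 100% = no agonist. Assay measured IP1 accumulation in human GnRH-R CHO cells stimulated 1 h at 37° C with EC80 buserelin, then lysed 1 h at 22° C.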
(In general: In TR-FRET formats the signal depends on donor and acceptor labels being close together.)
Turning to `O=C(O)c1cccc(NC(=O)c2ccc3c(c2)C2(CCS(=O)(=O)CC2)C(C2CC2)N3S(=O)(=O)c2cccc(OC(F)F)c2)c1` (single isomer, unassigned) [Example 90.1, 3-{[(2-cyclopropyl-1-{[3-(difluoromethoxy)phenyl]sulfonyl}-1′,1′-dioxido-1,2,2′,3′,5′,6′-hexahydrospiro[indole-3,4′-thiopyran]-5-yl)carbonyl]amino}benzoic acid], the IC50 is 41 nM.
Next, `O=C(O)c1cccc(NC(=O)c2ccc3c(c2)C2(CCS(=O)(=O)CC2)C(C2CC2)N3S(=O)(=O)c2cccc(OC(F)F)c2)c1` (single isomer, unassigned) [Example 90.2, 3-{[(2-cyclopropyl-1-{[3-(difluoromethoxy)phenyl]sulfonyl}-1′,1′-dioxido-1,2,2′,3′,5′,6′-hexahydrospiro[indole-3,4′-thiopyran]-5-yl)carbonyl]amino}benzoic acid]: 2860 nM; `CC1N(S(=O)(=O)c2ccc(F)cc2)c2ccc(C(=O)NCc3ccccc3Cl)cc2C12CCOCC2` (centres unmarked) [Example 2, N-(2-chlorobenzyl)-1-[(4-fluorophenyl)sulfonyl]-2-methyl-1,2,2′,3′,5′,6′-hexahydrospiro[indole-3,4′-pyran]-5-carboxamide]: 189 nM.
With `CC1N(S(=O)(=O)c2ccc(F)cc2)c2ccc(C(=O)NCc3ncccc3C(F)(F)F)cc2C12CCOCC2` (centres unmarked) [Example 3, 1-[(4-fluorophenyl)sulfonyl]-2-methyl-N-{[3-(trifluoromethyl)pyridin-2-yl]methyl}-1,2,2′,3′,5′,6′-hexahydrospiro[indole-3,4′-pyran]-5-carboxamide], the IC50 was 584 nM.
Consider `CC1N(S(=O)(=O)c2ccc(F)cc2)c2ccc(C(=O)NCc3ccccc3C(F)(F)F)cc2C12CCOCC2` (centres unmarked) [Example 4, 1-[(4-fluorophenyl)sulfonyl]-2-methyl-N-[2-(trifluoromethyl)benzyl]-1,2,2′,3′,5′,6′-hexahydrospiro[indole-3,4′-pyran]-5-carboxamide], for which the IC50 came out at 281 nM.
Next, `CC1N(S(=O)(=O)c2ccc(F)cc2)c2ccc(C(=O)NCc3ncc(F)cc3Cl)cc2C12CCOCC2` (centres unmarked) [Example 5, N-[(3-chloro-5-fluoropyridin-2-yl)methyl]-1-[(4-fluorophenyl)sulfonyl]-2-methyl-1,2,2′,3′,5′,6′-hexahydrospiro[indole-3,4′-pyran]-5-carboxamide]: 345 nM; `CC1N(S(=O)(=O)c2ccc(F)cc2)c2ccc(C(=O)NCc3ccccn3)cc2C12CCOCC2` (centres unmarked) [Example 6, 1-[(4-fluorophenyl)sulfonyl]-2-methyl-N-(2-pyridylmethyl)-1,2,2′,3′,5′,6′-hexahydrospiro[indole-3,4′-pyran]-5-carboxamide]: 6720 nM; `CC1N(S(=O)(=O)c2ccc(F)cc2)c2ccc(C(=O)NCc3ccc(F)cc3)cc2C12CCOCC2` (centres unmarked) [Example 7, N-(4-fluorobenzyl)-1-[(4-fluorophenyl)sulfonyl]-2-methyl-1,2,2′,3′,5′,6′-hexahydrospiro[indole-3,4′-pyran]-5-carboxamide]: 1060 nM.
As to `CC1N(S(=O)(=O)c2ccc(F)cc2)c2ccc(C(=O)NCc3ccccc3C#N)cc2C12CCOCC2` (centres unmarked) [Example 8, N-(2-cyanobenzyl)-1-[(4-fluorophenyl)sulfonyl]-2-methyl-1,2,2′,3′,5′,6′-hexahydrospiro[indole-3,4′-pyran]-5-carboxamide], the IC50 was found to be 2510 nM.
Next, `CC1N(S(=O)(=O)c2ccc(F)cc2)c2ccc(C(=O)NCc3ccccc3S(C)(=O)=O)cc2C12CCOCC2` (centres unmarked) [Example 9, 1-[(4-fluorophenyl)sulfonyl]-N-(2-mesylbenzyl)-2-methyl-1,2,2′,3′,5′,6′-hexahydrospiro[indole-3,4′-pyran]-5-carboxamide]: 4830 nM; `CC1N(S(=O)(=O)c2ccc(F)cc2)c2ccc(C(=O)Nc3cccc(S(C)(=O)=O)c3)cc2C12CCOCC2` (centres unmarked) [Example 10, 1-[(4-fluorophenyl)sulfonyl]-N-(3-mesylphenyl)-2-methyl-1,2,2′,3′,5′,6′-hexahydrospiro[indole-3,4′-pyran]-5-carboxamide]: 1390 nM.

A word on the IC50: it is the concentration that inhibits the measured activity by half.
